In patent EP4678638A1, “NEW E3 UBIQUITIN LIGASE LIGAND, PROTEIN DEGRADATION AGENT AND USE THEREOF” (priority 2023, dated 2024):

biological target: T1, IRAK4 (Homo sapiens, UniProt Q9NWZ3); assay: Western blot degradation of IRAK4 (hPBMC); assay type: cell-based; conditions: Table D1
T1 construct: evaluate the effects of the compounds of the present disclosure on the expression of target proteins in cells; endogenous in cells; host or cells: hPBMC
T1 sequence (Q9NWZ3 1-460): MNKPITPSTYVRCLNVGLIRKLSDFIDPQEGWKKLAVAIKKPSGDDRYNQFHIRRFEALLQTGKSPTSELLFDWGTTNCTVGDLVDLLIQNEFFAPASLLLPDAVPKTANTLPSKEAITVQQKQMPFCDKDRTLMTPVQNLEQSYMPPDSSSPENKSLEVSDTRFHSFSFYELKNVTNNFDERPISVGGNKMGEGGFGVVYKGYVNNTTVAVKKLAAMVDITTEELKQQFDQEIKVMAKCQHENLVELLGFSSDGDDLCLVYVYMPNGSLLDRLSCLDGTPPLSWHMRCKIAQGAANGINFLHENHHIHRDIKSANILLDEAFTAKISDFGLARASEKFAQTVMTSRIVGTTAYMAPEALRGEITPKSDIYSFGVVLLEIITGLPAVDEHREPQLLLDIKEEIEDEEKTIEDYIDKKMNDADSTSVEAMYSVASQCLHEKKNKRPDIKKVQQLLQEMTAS
Description: Conventional Western blot assay was performed to evaluate the effects of the compounds of the present disclosure on the expression of target proteins in cells.
(1) Cell Seeding and Protein Harvesting: The selected cells were processed according to the cell seeding procedure and protein harvesting procedure in Table III-2. Table III-2 Cell Seeding and Protein Harvesting Procedures
(2) To the collected supernatant, 5X SDS sample loading buffer was added, followed by denaturation at 95°C for 5 minutes. The denatured samples were then separated by SDS-PAGE electrophoresis on a polyacrylamide gel. Proteins were transferred to a nitrocellulose membrane (0.45 µm NC membrane), blocked with blocking buffer at room temperature for 1 hour, and subjected to antibody incubation and development procedures according to the antibody manufacturer's instructions (Cell Signaling Technology).
Half-Maximal Degradation Concentration value (the drug concentration required for degrading proteins by 50%, abbreviated as DC50) reads method: comparing the grayscale values of Western blot bands from drug-treated samples with those from blank DMSO-treated controls, and identifying the drug concentration range at which the grayscale value is half that of the DMSO-treated control bands.
DC50 values can be calculated using ImageJ software to measure grayscale values of Western blot bands from drug-treated samples. The concentration-response curve is fitted to estimate the drug concentration corresponding to half the grayscale value.
Target protein remaining (%) refers to the percentage of target protein remaining in hPBMC cells after treatment with protein degrader compounds.
Calculation method for target protein remaining (%): Use ImageJ software to measure grayscale values of Western blot bands from drug (protein degrader)-treated samples. The grayscale value of drug-treated bands is divided by that of internal control protein bands, and the resulting quotient is normalized to obtain the relative percentage of remaining target protein after protein degrader treatment.
Target protein degradation rate (%) = 100% - target protein remaining (%).

Compound | Degradation of substrate protein IRAK4 (substrate protein remaining %)
CC(C)(O)c1cc2nc(C3CCN(Cc4ccnc(N5CCC(=O)NC5=O)c4)CC3)oc2cc1NC(=O)c1cccc(C(F)(F)F)n1 [GT-07627, N-(2-(1-((2-(2,4-dioxotetrahydropyrimidin-1(2H)-yl)pyridin-4-yl)methyl)piperidin-4-yl)-5-(2-hydroxypropan-2-yl)benzo[d]oxazol-6-yl)-6-(trifluoromethyl)picolinamide] | A (A is defined as 0% ≤ substrate protein remaining % ≤ 80%)
CC(C)Nc1cc(-n2ccc3cc(C#N)cnc32)ncc1C(=O)NC1CCN(Cc2ccnc(C3CCC(=O)NC3=O)c2)CC1 (stereo not drawn) [GT-07412, 6-(5-cyano-1H-pyrrolo[2,3-b]pyridin-1-yl)-N-(1-((2-(2,6-dioxopiperidin-3-yl)pyridin-4-yl)methyl)piperidin-4-yl)-4-(isopropylamino)nicotinamide] | A (A is defined as 0% ≤ substrate protein remaining % ≤ 80%)
CC(C)(O)c1cc2nc(C3CCN(Cc4ccc(C5CCC(=O)NC5=O)cc4)CC3)oc2cc1NC(=O)c1cccc(C(F)(F)F)n1 (stereo not drawn) [GT-05771, N-(2-(1-(4-(2,6-dioxopiperidin-3-yl)benzyl)piperidin-4-yl)-5-(2-hydroxypropan-2-yl)benzo[d]oxazol-6-yl)-6-(trifluoromethyl)picolinamide] | A (A is defined as 0% ≤ substrate protein remaining % ≤ 80%)
COc1cc2nn(C3CCN(Cc4cc(N5CCC(=O)NC5=O)ncc4F)CC3)cc2cc1NC(=O)c1cccc(C(F)(F)F)c1 [GT-07414, N-(2-(1-((2-(2,4-dioxotetrahydropyrimidin-1(2H)-yl)-5-fluoropyridin-4-yl)methyl)piperidin-4-yl)-6-methoxy-2H-indazol-5-yl)-3-(trifluoromethyl)benzamide] | A (A is defined as 0% ≤ substrate protein remaining % ≤ 80%)
CC(C)(O)c1cc2nc(C3CCN(Cc4cccnc4C4CCC(=O)NC4=O)CC3)sc2cc1NC(=O)c1cccc(C(F)(F)F)n1 (stereo not drawn) [GT-07625, N-(2-(1-((2-(2,6-dioxopiperidin-3-yl)pyridin-3-yl)methyl)piperidin-4-yl)-5-(2-hydroxypropan-2-yl)benzo[d]thiazol-6-yl)-6-(trifluoromethyl)picolinamide] | A (A is defined as 0% ≤ substrate protein remaining % ≤ 80%)
COc1cc2nn(C3CCN(Cc4ccc(N5CCC(=O)NC5=O)cc4F)CC3)cc2cc1NC(=O)c1cccc(C(F)(F)F)c1 [GT-04753, N-(2-(1-(4-(2,4-dioxotetrahydropyrimidin-1(2H)-yl)-2-fluorobenzyl)piperidin-4-yl)-6-methoxy-2H-indazol-5-yl)-3-(trifluoromethyl)benzamide] | A (A is defined as 0% ≤ substrate protein remaining % ≤ 80%)
O=C1CCN(c2cccc(CN3CCC(n4cc(NC(=O)c5cnn6ccc(N7CCOCC7)nc56)c(C(F)F)n4)CC3)c2)C(=O)N1 [GT-04177, N-(3-(difluoromethyl)-1-(1-(3-(2,4-dioxotetrahydropyrimidin-1(2H)-yl)benzyl)piperidin-4-yl)-1H-pyrazol-4-yl)-5-morpholinopyrazolo[1,5-a]pyrimidine-3-carboxamide] | A (A is defined as 0% ≤ substrate protein remaining % ≤ 80%)
COc1cc2nn(C3CCN(Cc4cncc(N5CCC(=O)NC5=O)c4)CC3)cc2cc1NC(=O)c1cccc(C(F)(F)F)c1 [GT-07416, N-(2-(1-((5-(2,4-dioxotetrahydropyrimidin-1(2H)-yl)pyridin-3-yl)methyl)piperidin-4-yl)-6-methoxy-2H-indazol-5-yl)-3-(trifluoromethyl)benzamide] | A (A is defined as 0% ≤ substrate protein remaining % ≤ 80%)
COc1cc2nn(C3CCN(Cc4cccc(NC5CCC(=O)NC5=O)c4)CC3)cc2cc1NC(=O)c1cccc(C(F)(F)F)c1 (stereo not drawn) [GT-04749, N-(2-(1-(3-((2,6-dioxopiperidin-3-yl)amino)benzyl)piperidin-4-yl)-6-methoxy-2H-indazol-5-yl)-3-(trifluoromethyl)benzamide] | A (A is defined as 0% ≤ substrate protein remaining % ≤ 80%)
O=C1CCC(c2ccc(CN3CCC(n4cc(NC(=O)c5coc(-c6ccnc(NCC7CC7)c6)n5)c(C(F)F)n4)CC3)cc2F)C(=O)N1 (stereo not drawn) [GT-04176, 2-(2-((cyclopropylmethyl)amino)pyridin-4-yl)-N-(3-(difluoromethyl)-1-(1-(4-(2,6-dioxopiperidin-3-yl)-3-fluorobenzyl)piperidin-4-yl)-1H-pyrazol-4-yl)oxazole-4-carboxamide] | A (A is defined as 0% ≤ substrate protein remaining % ≤ 80%)
CC(C)Nc1cc(-n2ccc3cc(C#N)cnc32)ncc1C(=O)NC1CCN(Cc2cncc(N3CCC(=O)NC3=O)c2)CC1 [GT-07410, 6-(5-cyano-1H-pyrrolo[2,3-b]pyridin-1-yl)-N-(1-((5-(2,4-dioxotetrahydropyrimidin-1(2H)-yl)pyridin-3-yl)methyl)piperidin-4-yl)-4-(isopropylamino)nicotinamide] | A (A is defined as 0% ≤ substrate protein remaining % ≤ 80%)
COc1cc2nn(C3CCN(Cc4ccc(N5CCC(=O)NC5=O)cc4)CC3)cc2cc1NC(=O)c1cccc(C(F)(F)F)c1 [GT-04752, N-(2-(1-(4-(2,4-dioxotetrahydropyrimidin-1(2H)-yl)benzyl)piperidin-4-yl)-6-methoxy-2H-indazol-5-yl)-3-(trifluoromethyl)benzamide] | A (A is defined as 0% ≤ substrate protein remaining % ≤ 80%)
COc1ccc2cn(C3CCN(Cc4ccc(N5CCC(=O)NC5=O)nc4)CC3)nc2c1NC(=O)c1cccc(C(F)(F)F)c1 [GT-04887, N-(2-(1-((6-(2,4-dioxotetrahydropyrimidin-1(2H)-yl)pyridin-3-yl)methyl)piperidin-4-yl)-6-methoxy-2H-indazol-7-yl)-3-(trifluoromethyl)benzamide] | A (A is defined as 0% ≤ substrate protein remaining % ≤ 80%)
O=C1CCN(c2cccc(CN3CCC(n4cc(NC(=O)c5coc(-c6ccnc(NCC(F)(F)F)c6)n5)c(C(F)F)n4)CC3)c2)C(=O)N1 [GT-05190, N-(3-(difluoromethyl)-1-(1-(3-(2,4-dioxotetrahydropyrimidin-1(2H)-yl)benzyl)piperidin-4-yl)-1H-pyrazol-4-yl)-2-(2-((2,2,2-trifluoroethyl)amino)pyridin-4-yl)oxazole-4-carboxamide] | A (A is defined as 0% ≤ substrate protein remaining % ≤ 80%)
COc1cc2nn(C3CCN(Cc4cccnc4C4CCC(=O)NC4=O)CC3)cc2cc1NC(=O)c1cccc(C(F)(F)F)n1 (stereo not drawn) [GT-07550, N-(2-(1-((2-(2,6-dioxopiperidin-3-yl)pyridin-3-yl)methyl)piperidin-4-yl)-6-methoxy-2H-indazol-5-yl)-6-(trifluoromethyl)picolinamide] | A (A is defined as 0% ≤ substrate protein remaining % ≤ 80%)
COc1cc2nn(C3CCN(Cc4ccnc(N5CCC(=O)NC5=O)c4)CC3)cc2cc1NC(=O)c1cccc(C(F)(F)F)c1 [GT-07415, N-(2-(1-((2-(2,4-dioxotetrahydropyrimidin-1(2H)-yl)pyridin-4-yl)methyl)piperidin-4-yl)-6-methoxy-2H-indazol-5-yl)-3-(trifluoromethyl)benzamide] | A (A is defined as 0% ≤ substrate protein remaining % ≤ 80%)
CC(C)Nc1cc(-n2ccc3cc(C#N)cnc32)ncc1C(=O)NC1CCN(Cc2cncc(C3CCC(=O)NC3=O)c2)CC1 (stereo not drawn) [GT-07413, 6-(5-cyano-1H-pyrrolo[2,3-b]pyridin-1-yl)-N-(1-((5-(2,6-dioxopiperidin-3-yl)pyridin-3-yl)methyl)piperidin-4-yl)-4-(isopropylamino)nicotinamide] | A (A is defined as 0% ≤ substrate protein remaining % ≤ 80%)
COc1cc2nn(C3CCN(Cc4cccc(NC5CCC(=O)NC5=O)c4)CC3)cc2cc1NC(=O)c1cccc(C(F)(F)F)n1 (stereo not drawn) [GT-04763, N-(2-(1-(3-((2,6-dioxopiperidin-3-yl)amino)benzyl)piperidin-4-yl)-6-methoxy-2H-indazol-5-yl)-6-(trifluoromethyl)picolinamide] | A (A is defined as 0% ≤ substrate protein remaining % ≤ 80%)
